Laboratory results published in US8367677B2, “Non-glycosylated/non-glycosidic/non-peptidic small molecule PSGL-1 mimetics for the treatment of inflammatory disorders” (Revotar Biopharmaceuticals AG, priority 2004, dated 2013).

Tests used:
[1] = target: T1, human E-Selectin-IgG-chimera (Homo sapiens, UniProt P16581); assay: Sialyl Lewis x Tyrosine Sulfate Assay (sLex TSA), E-selectin; type: binding; conditions: for inhibition at 100 µM: read-out: E-Selectin [% Inhib.]
T1 construct: fused on or other part: human IgG Fc part, a tag and dimerising handle that is captured by the goat anti-human Fc antibody on the plate
T1 sequence (P16581 22-175 limits assumed): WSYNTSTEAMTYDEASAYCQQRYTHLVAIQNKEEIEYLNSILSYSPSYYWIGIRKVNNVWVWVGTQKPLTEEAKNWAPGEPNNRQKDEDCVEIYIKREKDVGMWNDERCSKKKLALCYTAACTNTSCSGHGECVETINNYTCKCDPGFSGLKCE
Procedure: (§1) Compounds of the present invention are assayed on a molecular level for their ability to inhibit the binding of P-, L-, or E-selectin chimeric molecules to sLe^x and tyrosinesulfate residues linked to a polymeric matrix as a PSGL-1 substitute.
(§2) Microtiter plates are coated overnight in carbonate buffer pH9.6 with goat anti human Fc mAB (10 μg/ml). After washing in assay buffer (25 mM 4-(2-hydroxyethyl)-1-piperazineethanesulfonic acid (HEPES), 150 mM NaCl, 1 mM CaCl2 pH7.4) and blocking (3% bovine serum albumin (BSA) in assay buffer) plates are incubated for 2 h at 37° C. with human P-Selectin-IgG-chimera (0.61 nM respectively 150 ng/mL) or human L-Selectin-IgG-chimera (0.61 nM respectively 89 ng/mL) or human E-Selectin-IgG-chimera (0.61 nM respectively 131 ng/mL). 5 μl of sLe^x-tyrosine sulfate polyacrylamide (1 mg/ml) carrying 15% sLe^x, 10% Tyrosine-sulfate and 5% biotin is complexed with 20 μl Streptavidin-Peroxidase solution (1 mg/ml) and 25 μl assay buffer without CaCl2. For use in the assay, the ligand complex is diluted 1:10000 in assay buffer and further diluted 1:1 with varying amounts of compounds in assay buffer incl. 2% DMSO. This mixture is added to the wells precoated with E- or P-selectin. After incubation for 2 h at 37° C., wells are washed for six times with in assay buffer incl. 0.005% Polyoxyethylenesorbitan monolaurate (TWEEN 20), developed for 10-15 min with 20 μl 3,3′,5,5′-tetramethylbenzidine (TMB)/H2O2 substrate solution and stopped with 20 μl […]. Bound sLe^x-Tyrosine sulfate ligand complex is determined by measuring optical density at 450 nm vs. 620 nm in a Fusion alpha-FP reader (sold from Packard Bioscience, Dreieich, Germany).

[2] = target: T2, human P-Selectin-IgG-chimera (Homo sapiens, UniProt P16109); assay: Sialyl Lewis x Tyrosine Sulfate Assay (sLex TSA), P-selectin; type: binding; conditions: for inhibition at 100 µM: read-out: P-Selectin [% Inhib.]
T2 sequence (P16109 42-771 limits assumed): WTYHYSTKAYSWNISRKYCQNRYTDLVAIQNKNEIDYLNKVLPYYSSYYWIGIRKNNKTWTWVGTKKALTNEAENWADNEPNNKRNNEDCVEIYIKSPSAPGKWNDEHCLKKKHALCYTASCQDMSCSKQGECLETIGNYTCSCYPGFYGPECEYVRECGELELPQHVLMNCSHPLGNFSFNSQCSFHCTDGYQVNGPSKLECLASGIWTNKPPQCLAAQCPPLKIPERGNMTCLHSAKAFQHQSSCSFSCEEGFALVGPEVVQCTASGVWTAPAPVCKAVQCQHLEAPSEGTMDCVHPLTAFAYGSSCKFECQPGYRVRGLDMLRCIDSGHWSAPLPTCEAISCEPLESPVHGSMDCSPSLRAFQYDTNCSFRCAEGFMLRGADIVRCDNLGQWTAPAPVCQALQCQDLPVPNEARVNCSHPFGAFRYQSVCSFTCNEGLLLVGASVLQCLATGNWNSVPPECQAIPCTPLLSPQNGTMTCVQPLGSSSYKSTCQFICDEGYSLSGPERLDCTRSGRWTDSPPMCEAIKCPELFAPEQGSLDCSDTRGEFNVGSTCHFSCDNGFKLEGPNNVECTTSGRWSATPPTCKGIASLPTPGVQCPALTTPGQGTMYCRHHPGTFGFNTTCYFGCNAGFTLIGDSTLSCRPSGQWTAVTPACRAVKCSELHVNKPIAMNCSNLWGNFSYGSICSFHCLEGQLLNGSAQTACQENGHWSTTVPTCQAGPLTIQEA
Procedure: as §1, §2

[3] = target: T3, human L-Selectin-IgG-chimera (Homo sapiens, UniProt P14151); assay: Sialyl Lewis x Tyrosine Sulfate Assay (sLex TSA), L-selectin; type: binding; conditions: for inhibition at 100 µM: read-out: L-Selectin [% Inhib.]
T3 construct: fused on or other part: human IgG Fc part, a tag and dimerising handle that is captured by the goat anti-human Fc antibody on the plate
T3 sequence (P14151 39-318 limits assumed): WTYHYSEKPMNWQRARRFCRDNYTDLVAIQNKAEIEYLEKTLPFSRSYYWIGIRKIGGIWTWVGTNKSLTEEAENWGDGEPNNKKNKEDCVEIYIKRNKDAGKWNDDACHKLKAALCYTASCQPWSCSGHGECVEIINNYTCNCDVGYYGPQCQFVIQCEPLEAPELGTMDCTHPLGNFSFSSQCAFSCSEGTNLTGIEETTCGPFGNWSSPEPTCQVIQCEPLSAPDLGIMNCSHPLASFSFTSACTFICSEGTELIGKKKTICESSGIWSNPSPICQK
Procedure: as §1, §2

[4] = test system: human E-selectin-IgG chimera; assay: Flow chamber assay, cell adhesion and rolling under flow conditions, E-selectin; type: cell-based; conditions: 125 μM compound, flow shear 1 dyne/cm^2
Procedure: (§3) To assess the capability of compounds to inhibit cell binding under dynamic conditions resembling the flow in a blood vessel, flow chamber assays addressing/testing binding of HL-60 cells/various cell lines to P-selectin, L-selectin and E-selectin chimeric molecules are performed.
(§4) Cell attachment under flow conditions are determined using a parallel flow chamber system. A 35 mm polystyrene culture dish is coated for 1 hour at room temperature with coating buffer (50 mM tris-(hydroxymethyl)aminomethane buffer (Tris), 150 mM NaCl, 2 mM CaCl2; pH 7,4) containing human E- or P-selectin-IgG chimera at concentrations of 2.5 μg/ml or 10 μg/ml, respectively. After removal of the coating solution non specific binding sites are blocked for an additional hour with 1% BSA in coating buffer at room temperature. After washing with assay buffer (“Roswell Park Memorial Institute 1640” (RPMI 1640)+10 mM HEPES) the dish is fitted into a parallel plate laminar flow chamber (sold from Glycotech, Rockville, Md.) and mounted on an inverted phase-contrast microscope (sold from Olympus, Hamburg, Germany) equipped with a CCD camera (JVC) that is connected to a PC. Employing a peristaltic pump (sold from Ismatec, Wertheim-Mondfeld, Germany) the re-circulating system is equilibrated with assay buffer containing 125 μM compound or vehicle control (DMSO). Cells (1 million/ml) are added to the chamber and allowed to distribute for 2 minutes at a high flow rate. The flow rate is then decreased resulting in a calculated flow shear of 1 dyne/cm^2. Video sequences of 10 low power fields are digitally recorded after 5 minutes continuous flow. The percentage of inhibition is calculated from the mean number of cells per field that attached to the coated dish surface in the presence versus absence of compound […].

[5] = test system: human P-selectin-IgG chimera; assay: Flow chamber assay, cell adhesion and rolling under flow conditions, P-selectin; type: cell-based; conditions: 125 μM compound, flow shear 1 dyne/cm^2
Procedure: as §3, §4

[6] = Parallel Artificial Membrane Permeation Assay (PAMPA); type: in vitro ADME; conditions: 16 hours, room temperature; for [% flux] at pH 4.0: pH 4.0, 500 μM donor; for [% flux] at pH 7.4: pH 7.4, 500 μM donor
Procedure: The test compounds are dissolved at 10 mM in DMSO and diluted to 500 μM with PBS pH 7.4 or pH 4.0, respectively resulting in ‘donor solutions’. For use as an artificial membrane, a 1% solution of lecithin (w/v) in dodecane is prepared and sonicated. Then, 5 μl of the lecithin/dodecane mixture are carefully pipetted into each donor plate well. Immediately after the application of the artificial membrane, 150 μl of drug containing donor solutions are added to each well of the donor plate. Each well of the acceptor plate is filled with 300 μl buffer (PBS with 5% DMSO at pH 7.4 or pH 4.0, respectively) and the drug-filled donor plate is placed onto the acceptor plate, making sure the membrane is in contact with the buffer. After replacement of the lid, the assembled plates are transferred into a sealed box equipped with a moistured towel and incubated at room temperature for 16 hours. Then, the wells of the acceptor plate are analyzed with LC/MS.

Compound	inhibition at 100 µM ([1]; compound at 100 μM)	IC50 [2]	inhibition at 100 µM ([2]; compound at 100 μM)	IC50 [3]	inhibition at 100 µM ([3]; compound at 100 μM)	E-Selectin [% Inhib.] of cell attachment [4]	IC50 [1]	P-Selectin [% Inhib.] of cell attachment [5]	[% flux] at pH 4.0 [6]	[% flux] at pH 7.4 [6]	E-Selectin [% Inhib.] ([1]; compound at 100 μM)	P-Selectin [% Inhib.] ([2]; compound at 100 μM)	L-Selectin [% Inhib.] ([3]; compound at 100 μM)
O=C(O)Cc1ccc(-c2ccccc2NC(=O)Cc2ccc(O)c(O)c2O)s1 [Compound 41, (5-{2-[2-(2,3,4-Trihydroxyphenyl)-acetylamino]-phenyl}-thiophen-2-yl)acetic acid]	46%	7.6 µM	92%	14.6 µM	81%	26%	–	–	–	–	–	–	–
O=C(O)Cc1ccc(-c2ccccc2NC(=O)c2cccc(-c3ccc(O)c(O)c3O)c2)s1 [Compound 48, (5-{2-[(2′,3′,4′-Trihydroxy-biphenyl-3-carbonyl)-amino]-phenyl}-thiophen-2-yl)-acetic acid]	31%	5.8 µM	97%	9.8 µM	95%	61%	132 µM	55%	–	–	–	–	–
COC(=O)c1ccccc1NC(=O)Cc1ccc(O)c(O)c1O [Compound 93]	20%	–	68%	–	63%	–	–	–	0%	17%	–	–	–
O=C(/C=C/c1ccc(O)c(O)c1O)Nc1ccc(C(=O)O)cc1 [Compound 97]	51%	3.5 µM	97%	6.2 µM	98%	–	285 µM	47%	0%	16%	–	–	–
O=C(/C=C/c1ccc(O)c(O)c1O)Nc1cccc(C(=O)O)c1 [Compound 99]	71%	14.4 µM	99%	24.9 µM	99%	28%	–	96%	–	–	–	–	–
Cc1oc(-c2ccc(NC(=O)Cc3cc(O)c(O)c(O)c3)cc2)cc1C(=O)O [Compound 101]	–	–	–	–	–	–	–	99%	–	–	50%	93%	95%
O=C(O)Cc1ccc(-c2ccccc2NC(=O)CCc2cc(O)c(O)c(O)c2)s1 [Compound 102]	99%	2.4 µM	97%	3.1 µM	96%	35%	3.3 µM	11%	–	–	–	–	–
O=C(Cc1cc(O)c(O)c(O)c1)NCc1ccc(C(=O)O)cc1 [Compound 118]	53%	14.8 µM	79%	26.2 µM	66%	16%	8.7 µM	20%	0%	1%	–	–	–
O=C(CCc1cc(O)c(O)c(O)c1)NCc1ccc(C(=O)O)cc1 [Compound 120]	92%	34.9 µM	88%	30.8 µM	87%	21%	8.4 µM	21%	–	–	–	–	–
O=C(Cc1cc(O)c(O)c(O)c1)Nc1cccc(C(F)(F)F)c1 [Compound 123]	–	–	–	–	–	51%	–	–	27%	0%	–	–	–
O=C(Cc1ccc(O)c(O)c1O)Nc1cc(Cl)cc(Cl)c1 [Compound 124]	–	–	–	–	–	28%	–	23%	100%	0%	–	–	–
